Data published in patent US20250066778A1, “METHODS AND MATERIALS FOR TREATING HEART ATTACK” (THE JOHNS HOPKINS UNIVERSITY, priority 2022, published 2025).

Key:
[1] = tested on: Per1/Per2 DKO neonatal mouse cardiomyocytes; test: Gene expression (qPCR) in cultured cardiomyocytes from Per1/Per2 DKO neonatal mouse hearts after treatment; format: cell-based; conditions: for expression of cell cycle / mitosis regulating genes: norepinephrine 1 μM (FIG. 4C); for Wee1 gene expression: norepinephrine 1 μM (FIG. 5E)
Description: Sm22a-Cre (017491) and C57BL/6 mice were obtained from Jackson Lab. NGF +/− mice, Per1/Per2 DKO mice, and Mesp1-Cre mice were as described elsewhere (see, e.g., Wheeler et al., Neuron, 82: 587-602 (2014); Muller et al., J. Neurosci., 32: 14885-14898 (2012); and Saga et al., Development, 126: 3437-3447 (1999)). The animals were randomly allocated to experimental groups and both male and female mice were equally used in all experimental assays. All mouse hearts and cardiomyocytes were harvested at random times during the day unless specified otherwise. Cardiomyocytes were isolated from P0 or P1 mouse hearts using a neonatal cardiomyocyte isolation kit (Miltenyi Biotec) based on manufacturer's instructions. Before plating, cardiomyocytes were filtered through a 70 μm mesh and single cells were cultured in 24-well plates coated with gelatin. The cells were first maintained in 5% fetal bovine serum (FBS) in DMEM with Pen/Strep antibiotics for 24 hours and subsequently treated for at least 2 hours with 50% horse serum in DMEM and then for 2 days with 5% FBS in DMEM. Cardiomyocytes were treated with Norepinephrine (1 μM) (Sigma) or Nerve Growth Factor (NGF, 20 ng/ml) (PeproTech) as indicated. RNA was isolated from mouse hearts and cultured cardiomyocytes using Trizol, and cDNA was generated using the high-capacity cDNA reverse transcription kit (Applied Biosystems). qPCR reactions were performed using the Sybr Select qPCR mix (Thermo Fisher) with indicated primers. Gene expression levels were normalized to Gapdh or Rpl32.

[2] = tested on: wild type neonatal mouse cardiomyocytes (NMCMs); test: Gene expression (qPCR) in cultured wild type neonatal mouse cardiomyocytes after treatment; format: cell-based; conditions: for expression of mitosis regulating genes / Wee1 gene expression / expression of clock (circadian) genes: wild type NMCMs; for expression of mitosis regulating genes: norepinephrine 1 μM (FIG. 4C); for Wee1 gene expression: norepinephrine 1 μM (FIG. 5E); for expression of clock (circadian) genes: reset with 50% serum, norepinephrine 1 μM, after 48 hrs of treatment (FIG. 4B)
Description: Cardiomyocytes were isolated from P0 or P1 mouse hearts using a neonatal cardiomyocyte isolation kit (Miltenyi Biotec) based on manufacturer's instructions. Before plating, cardiomyocytes were filtered through a 70 μm mesh and single cells were cultured in 24-well plates coated with gelatin. The cells were first maintained in 5% fetal bovine serum (FBS) in DMEM with Pen/Strep antibiotics for 24 hours and subsequently treated for at least 2 hours with 50% horse serum in DMEM and then for 2 days with 5% FBS in DMEM. Cardiomyocytes were treated with Norepinephrine (1 μM) (Sigma) or Nerve Growth Factor (NGF, 20 ng/ml) (PeproTech) as indicated.
RNA was isolated from mouse hearts and cultured cardiomyocytes using Trizol, and cDNA was generated using the high-capacity cDNA reverse transcription kit (Applied Biosystems). qPCR reactions were performed using the Sybr Select qPCR mix (Thermo Fisher) with indicated primers. Gene expression levels were normalized to Gapdh or Rpl32.

NC[C@H](O)c1ccc(O)c(O)c1 [Norepinephrine]
expression of cell cycle / mitosis regulating genes [1]: failed to suppress mitosis regulating genes apart from Aurkb
expression of cell cycle / mitosis regulating genes ([1]; listed as norepinephrine): no significant effect on cell cycle genes apart from Aurkb
Wee1 gene expression [1]: this effect was not observed in Per1/Per2 DKO cardiomyocytes
Wee1 gene expression ([1]; listed as norepinephrine): this effect was not observed in the absence of Per1/Per2
expression of mitosis regulating genes [2]: decreased the expression of mitosis regulating genes
expression of mitosis regulating genes ([2]; listed as norepinephrine): suppressed mitosis genes
Wee1 gene expression [2]: induced Wee1 gene expression
Wee1 gene expression ([2]; listed as norepinephrine): induces Wee1 expression
expression of clock (circadian) genes [2]: induces the expression of circadian genes
expression of clock (circadian) genes ([2]; listed as norepinephrine): induced Per1 and Per2 as well as Cryptochrome1 (Cry1) and Cry2 genes

NGF: Nerve Growth Factor (PeproTech), used at 20 ng/ml on neonatal mouse cardiomyocytes
cell cycle gene expression ([2]; ex vivo treatment of NMCMs with NGF 20 ng/ml (FIG. 9E)): did not affect cell cycle gene expression
